Like-named read-outs stand apart in the source and are kept apart here.
Assays:
[1] = tested on: HCV 1a Wild-type replicon; test: microbe, parasite or virus in culture; details: Hepatitis C virus, Huh-7, read-out: Mean EC50 (nM) ± SD
[2] = tested on: Wild-type HCV 1b replicon; assay type: cell-based; details: Hepatitis C virus, read-out: Mean EC50 (nM)
[3] = tested on: HCV 1a Wild-type replicon; details: read-out: Mean EC50 (nM) ± SD; HCV 1a variant Wild-type; Huh7-Lunet cells

| SMILES | EC50 [1] | EC50 [2] | EC50 [3] |
| --- | --- | --- | --- |
| CC(C)(C)OC(=O)N[C@H]1CCCCC/C=C\[C@@H]2C[C@@]2(C(=O)NS(=O)(=O)C2CC2)NC(=O)[C@@H]2C[C@@H](OC(=O)N3Cc4cccc(F)c4C3)CN2C1=O [ASC08, Danoprevir] | 5.4 nM | 0.7 nM |  |
| C[C@@]1(F)[C@H](O)[C@@H](CO)O[C@H]1n1ccc(N)nc1=O [PSI-6130] |  |  | 770 nM |

Reference: patent US20210038681A1, “PHARMACEUTICAL COMPOSITION FOR TREATING VIRAL HEPATITIS C” (priority 2018, published 2021)
